Measurements published in US20140065212A1, “COATED PHARMACEUTICAL COMPOSITION CONTAINING REGORAFENIB” (Bayer Healthcare LLC, priority 2012, published 2014).

Experiment: thermodynamic solubility of regorafenib monohydrate in different solvents
Assay type: physicochemical
Settings: thermodynamic from solid
From the text: Furthermore salts of the compound of formula (I) such as its hydrochloride, mesylate and phenylsulfonate are mentioned in WO 2005/009961. The monohydrate of the compound of formula (I) is mentioned in WO 2008/043446. An improved process for the manufacturing of regorafenib in high purity is described in WO 2011/128261. Due to the limited solubility of regorafenib monohydrate (see table 1) an applicable pharmaceutical composition containing regorafenib is in form of a solid dispersion as described in WO 2006/026500.

solubility (aqueous with cosolvent or surfactant or cyclodextrin, solvent: HPβ-Cyclodextrin/water (10:90)): < 100 µg/mL
solubility (aqueous with cosolvent or surfactant or cyclodextrin, solvent: PEG 400/water (30:70)): 270 µg/mL
solubility (light liquid paraffin, oil or lipid, solvent: Ligth liquid paraffin): < 100 µg/mL
solubility (oil or lipid, solvent: Oleoylpolyethylenglycol glycerides): 3600 µg/mL
solubility (organic solvent or mixture, solvent: Ethanol): 6400 µg/mL
solubility (organic solvent or mixture, solvent: Polyethylenglycol (PEG) 400): 67300 µg/mL
solubility (solvent: Water): < 100 µg/mL
Structure (SMILES): CNC(=O)c1cc(Oc2ccc(NC(=O)Nc3ccc(Cl)c(C(F)(F)F)c3)c(F)c2)ccn1 [regorafenib monohydrate]
